Laboratory results taken from patent US7179832B2, “Glycogen synthase kinase 3β inhibitor, composition and process for the preparation thereof” (Crystalgenomics, Inc., priority 2003, dated 2007).

What follows are molecules tested against GSK-3β (Homo sapiens, UniProt P49841) (assay: Assay for GSK-3β inhibiting activity (32P-ATP, phospho-CREB peptide substrate, filter paper, CPM)). Settings: GSK-3β inhibiting activity; 100 nM GSK-3β protein, 100 μM phospho-CREB peptide, 100 μM ATP, 30° C. for 1 hour; read-out: IC50.
Sequence of GSK-3β (P49841 whole entry): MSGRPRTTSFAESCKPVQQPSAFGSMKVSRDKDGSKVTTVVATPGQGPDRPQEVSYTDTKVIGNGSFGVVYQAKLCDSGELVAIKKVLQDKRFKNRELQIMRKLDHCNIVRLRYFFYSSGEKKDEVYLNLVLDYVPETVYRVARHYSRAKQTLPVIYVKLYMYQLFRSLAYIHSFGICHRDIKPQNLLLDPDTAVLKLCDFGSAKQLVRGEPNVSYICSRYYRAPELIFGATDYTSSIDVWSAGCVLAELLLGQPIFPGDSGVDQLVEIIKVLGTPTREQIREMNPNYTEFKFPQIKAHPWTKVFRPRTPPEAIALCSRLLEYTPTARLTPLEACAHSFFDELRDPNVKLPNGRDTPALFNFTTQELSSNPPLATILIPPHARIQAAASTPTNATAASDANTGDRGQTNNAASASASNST
Assay type: biochemical

IC50 [µM]	SMILES
> 1	O=C(Nc1ccc(CO)cc1)c1ccc(O)c2[nH]c(-c3ccc(Cl)cc3Cl)nc12 [Compound 26]
> 1	O=C(NCc1ccccc1)c1ccc(O)c2[nH]c(-c3ccc(Cl)cc3)nc12 [Compound 52]
> 1	O=C(Nc1ccc(CCN2C(=O)c3ccccc3C2=O)cc1)c1ccc(O)c2[nH]c(-c3ccc(Cl)cc3)nc12 [Compound 18]
0.28	O=C(NCCNc1ccc([N+](=O)[O-])cn1)c1ccc(O)c2[nH]c(-c3ccc(Cl)cc3Cl)nc12 [Compound 110]
0.003	CCS(=O)(=O)Nc1ccc(CCNC(=O)c2ccc(O)c3[nH]c(-c4ccc(F)cc4)nc23)cc1 [Compound 116]
> 1	Nc1ccc(CNC(=O)c2ccc(O)c3[nH]c(-c4ccc(Cl)cc4)nc23)cc1 [Compound 54]
> 1	Cc1ccc(S(=O)(=O)NCCc2ccc(NC(=O)c3ccc(O)c4[nH]c(-c5ccc(F)cc5F)nc34)cc2)cc1 [Compound 38]
0.74	Cc1ccc(S(=O)(=O)NCCc2ccc(NC(=O)c3ccc(O)c4[nH]c(-c5ccc(Cl)cc5Cl)nc34)cc2)cc1 [Compound 28]
0.009	Cc1cn(CCCNC(=O)c2ccc(O)c3[nH]c(-c4ccc(F)c(Cl)c4)nc23)cn1 [Compound 202]
> 1	NCCCNC(=O)c1ccc(O)c2[nH]c(-c3ccccc3)nc12 [Compound 163]

Second part, the molecule before the results:

SMILES	IC50 [µM]
O=C(NCCCn1cnc(Cl)c1Cl)c1ccc(O)c2[nH]c(-c3ccc(F)cc3Cl)nc12 [Compound 200]	0.002
Cc1ccc(S(=O)(=O)Nc2ccc(CCNC(=O)c3ccc(O)c4[nH]c(-c5ccc(F)cc5F)nc34)cc2)cc1 [Compound 141]	0.043
O=C(NCCCn1ccnc1)c1ccc(O)c2[nH]c(-c3ccc(F)cc3Cl)nc12 [Compound 198]	0.02
Cc1ccc(S(=O)(=O)NCCc2ccc(NC(=O)c3ccc(O)c4[nH]c(-c5ccc(F)c(Cl)c5)nc34)cc2)cc1 [Compound 43]	> 1
Cc1ccc(S(=O)(=O)Nc2ccc(CCNC(=O)c3ccc(O)c4[nH]c(-c5ccc(Cl)cc5)nc34)cc2)cc1 [Compound 76]	0.05
Nc1ccc(CNC(=O)c2ccc(O)c3[nH]c(-c4ccccc4)nc23)cc1 [Compound 50]	0.6
CS(=O)(=O)Nc1ccc(CCNC(=O)c2ccc(O)c3nc(-c4ccc(Cl)cc4)[nH]c23)cc1 [Compound 75]	0.009
O=C(NCCc1ccc(O)cc1)c1ccc(O)c2[nH]c(-c3ccc(Cl)cc3)nc12 [Compound 74]	> 1
O=C(NCCCn1ccnc1)c1ccc(O)c2[nH]c(-c3ccc(F)cc3)nc12 [Compound 185]	> 1
CCS(=O)(=O)NCCc1ccc(NC(=O)c2ccc(O)c3[nH]c(-c4ccc(F)cc4F)nc23)cc1 [Compound 39]	> 1
O=C(NCc1ccc([N+](=O)[O-])cc1)c1ccc(O)c2[nH]c(-c3ccccc3)nc12 [Compound 49]	0.6
O=C(NCCCn1ccnc1)c1ccc(O)c2[nH]c(-c3ccc(Cl)cc3)nc12 [Compound 170]	0.19
O=C(NCc1ccccc1)c1ccc(O)c2[nH]c(-c3ccc(Cl)cc3Cl)nc12 [Compound 55]	> 1
O=C(NCCCN1CCOCC1)c1ccc(O)c2[nH]c(-c3ccc(Cl)cc3)nc12 [Compound 171]	> 1
O=C(NCCCn1cnc(Cl)c1Cl)c1ccc(O)c2[nH]c(-c3ccc(F)cc3F)nc12 [Compound 197]	0.003
O=C(NCCc1ccc(N2C(=O)c3ccccc3C2=O)cc1)c1ccc(O)c2[nH]c(-c3ccccc3)nc12 [Compound 67]	0.16
CS(=O)(=O)Nc1ccc(CCNC(=O)c2ccc(O)c3nc(-c4ccc(F)cc4F)[nH]c23)cc1 [Compound 140]	> 1
O=C(NCCc1ccc(OCCN2CCOCC2)cc1)c1ccc(O)c2[nH]c(-c3ccc(Cl)cc3)nc12 [Compound 94]	> 5
CN1CCN(CC(=O)Nc2ccc(CCNC(=O)c3ccc(O)c4[nH]c(-c5ccc(F)cc5Cl)nc34)cc2)CC1 [Compound 156]	0.28
O=C(NCCc1ccccn1)c1ccc(O)c2[nH]c(-c3ccc(Cl)cc3)nc12 [Compound 82]	> 1
